Experimental data: article PMC4640066 (Nature Communications, 2015)

Test system: HeLa cells expressing EB3-EGFP (interphase)
Test: EB3-EGFP signal tracking, interphase cells
Assay type: cell-based, human
Conditions: 15 min; for Track length / Track lifetime / Velocity: interphase HeLa EB3-EGFP, mean±s.d.; for Track numbers: interphase, from a 144-μm^2 area inside the cell
Description: A HeLa ‘Kyoto' cell line stably expressing EB3-EGFP (a kind gift from Dr J. Ellenberg) was maintained in DMEM+GlutaMAX (Gibco) supplemented with 10% FBS, 2 mM L-glutamine, 100 U ml^−1 penicillin, 100 μg ml^−1 streptomycin, 1 mM sodium pyruvate and 0.5 mg ml^−1 G418. Cells were seeded into eight-well Lab-Tek chambers (Nunc, Rochester, NY) for 24-h prior imaging. For imaging, the medium was exchanged to Live Cell Imaging Solution (Molecular Probes Life Technologies) supplemented as described above and containing various concentrations of AG1 or gatastatin. Interphase cells were incubated with drugs for 15 min and mitotic cells were treated as described in Fig. 4c. Then, EB3 tracks were observed under a PerkinElmer UltraVIEW ERS Spinning Disk microscope (Software: UltraVIEW ERS Imaging Suite) equipped with a Plan-APOCHROMAT × 100/1.4 Oil DIC objective, a Confocal Scanner Unit (Yokogawa CSU 22), a Hamamatsu EM CCD camera (C9100-50) and a 488-nm Argon laser at 37 °C, and time-lapse sequences were performed for 60 s with a 400-ms interval. Automatic analysis of EB3-EGFP signal tracks was performed with ImageJ (http://imagej.nih.gov/ij/) and Matlab (Mathworks) as described.

COc1cc2c(=O)c(-c3cc(OC)c4c(c3OC)OCO4)coc2cc1OCc1ccccc1 [Gatastatin, O^7-demethylbenzyl AG1]
Track length (3 μM): 1.03±0.16 μm | Track lifetime (3 μM): 3.45 ± 0.71 s | Velocity (3 μM): 12.49±1.67 μm min^−1 | Track numbers (3 μM): 94±27 | Track length (10 μM): 0.84±0.10 μm | Track lifetime (10 μM): 3.67 ± 0.62 s | Velocity (10 μM): 10.03±0.99 μm min^−1 | Track numbers (10 μM): 83±30 | Track length (30 μM): 0.71±0.08 μm | Track lifetime (30 μM): 3.84 ± 0.50 s | Velocity (30 μM): 8.43±0.81 μm min^−1 | Track numbers (30 μM): 89±32
